In US4026857A, “Epoxy emulsion water-based coating” (priority 1975, dated 1977):

Key:
[1] = Solubility of solvents in water and of water in solvents; format: physicochemical; conditions: for Solubility, Solvent in H2 O: solvent in water; for Solubility, H2 O in Solvent: water in solvent
[2] = Emulsion formation with different organic solvents; format: physicochemical; conditions: 50 parts solvent, 100 parts epoxy resin, 14 parts surfactant, 150 parts deionized water
Method: A series of emulsions were prepared using 100 parts of an epoxy resin (diglycidylether of bisphenol A) having an epoxy equivalent weight of 2,000-2,500, 50 parts of a solvent, 14 parts of surfactant having the formula [drawing 1] wherein a+ c is about 190-200, b is about 60-70, and average molecular weight is about 12,500, and 150 parts of deionized water. In each emulsion a different solvent was used. Each emulsion, as well as other emulsions whose formulations are described in this specification, was prepared using the following general procedure:
The epoxy resin was dissolved in the solvent by heating at 130° C. with agitation. The resin solution was then cooled to about 65° C. and placed in high speed dispersing equipment. The surfactant was added. (In formulations wherein the emulsion coating was to be baked, cross-linking catalyst and curing agent, as defined hereinafter, were also added at this point.) Part of the water (about 100 parts) was then slowly added under high speed agitation (approximately 2,000 ft./min. peripheral speed) to pass the inversion point. Thereupon the agitation speed was slowed down to about 1,000 ft./min. and the balance of the water was added.
In each emulsion, a different organic solvent was used. […] Each emulsion formed was applied, by wire wound bar application, to a test panel of lubricated electrolytic tinplated steel. […]

Solubility, Solvent in H2 O [1] | Solubility, H2 O in Solvent [1] | emulsion formation [2] | Structure (SMILES)
.infin. | .infin. | – | CCOCCO [Ethyl Cellosolve]
0.99 wt. % | 18.8 wt. % | – | CCCCCCOCCO [Hexyl Cellosolve, 2-Hexoxyethanol]
– | – | an emulsion could not be formed | OCCOCCOc1ccccc1 [diethylene glycol monophenyl ether]
– | – | an emulsion could not be formed | CC(C)CC(=O)CC(C)C [diisobutyl ketone]

Structure (SMILES) | Solubility, Solvent in H2 O [1] | Solubility, H2 O in Solvent [1] | emulsion formation [2]
COCCO [Methyl Cellosolve] | .infin. | .infin. | –
